# Key:
# Assay in all cases: relative viability (nuclei count vs DMSO), 5 days (fraction); higher = more cells survive
# HCC-78 = tested on: HCC-78
# Summary of the method: (§1)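 The day after seeding in 1536-well plates, lung cancer cell lines were treated by pin tool with a single drug, or with a fixed anchor-drug dose together with five library-drug doses (not always all listed) in √10 steps. After 5 days, a combined fix-and-stain solution (final 0.05% Triton X-100, 1% formaldehyde, 1 ug/ml Hoechst) was added. Nuclei counted on 4× images gave relative viability as treated counts over vehicle counts, reported as the median of duplicate plates.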
# NCI-H2170 = tested on: NCI-H2170
# Summary of the method: as §1
# NCI-H2228 = tested on: NCI-H2228
# Summary of the method: as §1
# NCI-H1734 = tested on: NCI-H1734
# Summary of the method: as §1
# RERF-LC-KJ = tested on: RERF-LC-KJ
# Summary of the method: as §1
# UMC-11 = tested on: UMC-11
# Summary of the method: as §1
# NCI-H2405 = tested on: NCI-H2405
# Summary of the method: as §1
# NCI-H1944 = tested on: NCI-H1944
# Summary of the method: as §1
# PC-3 [JPC-3] = tested on: PC-3 [JPC-3]
# Summary of the method: as §1
# NCI-H460 = tested on: NCI-H460
# Summary of the method: as §1
# NCI-H3122 = tested on: NCI-H3122
# Summary of the method: as §1
# NCI-H1651 = tested on: NCI-H1651
# Summary of the method: as §1
# EPLC-272H = tested on: EPLC-272H
# Summary of the method: as §1
# LC-2-ad = tested on: LC-2-ad
# Summary of the method: as §1
# NCI-H1395 = tested on: NCI-H1395
# Summary of the method: as §1
# NCI-H2087 = tested on: NCI-H2087
# Summary of the method: as §1
# LU99A = tested on: LU99A
# Summary of the method: as §1
# ABC-1 = tested on: ABC-1
# Summary of the method: as §1
# CAL-12T = tested on: CAL-12T
# Summary of the method: as §1
# NCI-H1755 = tested on: NCI-H1755
# Summary of the method: as §1
# HCC-366 = tested on: HCC-366
# Summary of the method: as §1
# LOU-NH91 = tested on: LOU-NH91
# Summary of the method: as §1
# NCI-H1793 = tested on: NCI-H1793
# Summary of the method: as §1
compound,measurement,setting,value
Clc1ccc(Nc2nnc(Cc3ccncc3)c3ccccc23)cc1 [Vatalanib] + CS(=O)(=O)CCNCc1ccc(-c2ccc3ncnc(Nc4ccc(OCc5cccc(F)c5)c(Cl)c4)c3c2)o1 [Lapatinib] (partner 2 µM),relative viability,HCC-78; first compound 0.04 µM,0.694
same,relative viability,HCC-78; first compound 0.1265 µM,0.634
same,relative viability,HCC-78; first compound 0.4 µM,0.937
same,relative viability,HCC-78; first compound 4 µM,0.478
same,relative viability,NCI-H2170; first compound 0.04 µM,0.261
same,relative viability,NCI-H2170; first compound 0.1265 µM,0.268
same,relative viability,NCI-H2170; first compound 0.4 µM,0.286
same,relative viability,NCI-H2170; first compound 1.265 µM,0.261
same,relative viability,NCI-H2170; first compound 4 µM,0.264
same,relative viability,NCI-H2228; first compound 0.04 µM,1.32
same,relative viability,NCI-H2228; first compound 0.1265 µM,1.14
same,relative viability,NCI-H2228; first compound 0.4 µM,1.06
same,relative viability,NCI-H2228; first compound 1.265 µM,0.981
same,relative viability,NCI-H2228; first compound 4 µM,1.28
same,relative viability,NCI-H1734; first compound 0.04 µM,0.919
same,relative viability,NCI-H1734; first compound 0.1265 µM,1.02
same,relative viability,NCI-H1734; first compound 0.4 µM,1.11
same,relative viability,NCI-H1734; first compound 1.265 µM,1.06
same,relative viability,NCI-H1734; first compound 4 µM,1.09
same,relative viability,RERF-LC-KJ; first compound 0.04 µM,0.812
same,relative viability,RERF-LC-KJ; first compound 0.1265 µM,0.842
same,relative viability,RERF-LC-KJ; first compound 0.4 µM,0.854
same,relative viability,RERF-LC-KJ; first compound 1.265 µM,0.775
same,relative viability,RERF-LC-KJ; first compound 4 µM,0.698
same,relative viability,UMC-11; first compound 0.04 µM,0.924
same,relative viability,UMC-11; first compound 0.1265 µM,0.941
same,relative viability,UMC-11; first compound 0.4 µM,0.976
same,relative viability,UMC-11; first compound 1.265 µM,0.975
same,relative viability,UMC-11; first compound 4 µM,1.13
same,relative viability,NCI-H2405; first compound 0.04 µM,1.04
same,relative viability,NCI-H2405; first compound 0.1265 µM,0.984
same,relative viability,NCI-H2405; first compound 1.265 µM,0.923
same,relative viability,NCI-H2405; first compound 4 µM,1.05
same,relative viability,NCI-H1944; first compound 0.04 µM,0.904
same,relative viability,NCI-H1944; first compound 0.1265 µM,0.635
same,relative viability,NCI-H1944; first compound 0.4 µM,0.909
same,relative viability,NCI-H1944; first compound 1.265 µM,0.804
same,relative viability,NCI-H1944; first compound 4 µM,0.784
same,relative viability,PC-3 [JPC-3]; first compound 0.04 µM,0.49
same,relative viability,PC-3 [JPC-3]; first compound 0.1265 µM,0.461
same,relative viability,PC-3 [JPC-3]; first compound 0.4 µM,0.448
same,relative viability,PC-3 [JPC-3]; first compound 1.265 µM,0.43
same,relative viability,PC-3 [JPC-3]; first compound 4 µM,0.442
same,relative viability,NCI-H460; first compound 0.04 µM,1.04
same,relative viability,NCI-H460; first compound 0.1265 µM,0.848
same,relative viability,NCI-H460; first compound 0.4 µM,0.931
same,relative viability,NCI-H460; first compound 1.265 µM,0.845
same,relative viability,NCI-H460; first compound 4 µM,0.898
same,relative viability,NCI-H3122; first compound 0.04 µM,1.01
same,relative viability,NCI-H3122; first compound 0.1265 µM,1.01
same,relative viability,NCI-H3122; first compound 0.4 µM,1.01
same,relative viability,NCI-H3122; first compound 1.265 µM,0.977
same,relative viability,NCI-H3122; first compound 4 µM,0.97
same,relative viability,NCI-H1651; first compound 0.04 µM,0.921
same,relative viability,NCI-H1651; first compound 0.1265 µM,0.868
same,relative viability,NCI-H1651; first compound 0.4 µM,0.947
same,relative viability,NCI-H1651; first compound 1.265 µM,0.899
same,relative viability,NCI-H1651; first compound 4 µM,0.835
same,relative viability,EPLC-272H; first compound 0.04 µM,0.931
same,relative viability,EPLC-272H; first compound 0.1265 µM,0.9
same,relative viability,EPLC-272H; first compound 0.4 µM,0.23
same,relative viability,EPLC-272H; first compound 1.265 µM,0.985
same,relative viability,EPLC-272H; first compound 4 µM,1.01
same,relative viability,LC-2-ad; first compound 0.04 µM,0.977
same,relative viability,LC-2-ad; first compound 0.1265 µM,0.865
same,relative viability,LC-2-ad; first compound 0.4 µM,0.952
same,relative viability,LC-2-ad; first compound 1.265 µM,0.936
same,relative viability,LC-2-ad; first compound 4 µM,0.901
same,relative viability,NCI-H1395; first compound 0.04 µM,1.16
same,relative viability,NCI-H1395; first compound 0.1265 µM,0.929
same,relative viability,NCI-H1395; first compound 0.4 µM,0.948
same,relative viability,NCI-H1395; first compound 1.265 µM,1.01
same,relative viability,NCI-H1395; first compound 4 µM,0.864
same,relative viability,NCI-H2087; first compound 0.04 µM,1.12
same,relative viability,NCI-H2087; first compound 0.1265 µM,1.02
same,relative viability,NCI-H2087; first compound 0.4 µM,1.15
same,relative viability,NCI-H2087; first compound 1.265 µM,1.09
same,relative viability,NCI-H2087; first compound 4 µM,1.12
same,relative viability,LU99A; first compound 0.04 µM,0.893
same,relative viability,LU99A; first compound 0.1265 µM,0.986
same,relative viability,LU99A; first compound 0.4 µM,1.16
same,relative viability,LU99A; first compound 1.265 µM,0.831
same,relative viability,LU99A; first compound 4 µM,0.92
same,relative viability,ABC-1; first compound 0.04 µM,1.33
same,relative viability,ABC-1; first compound 0.1265 µM,0.931
same,relative viability,ABC-1; first compound 0.4 µM,1.16
same,relative viability,ABC-1; first compound 1.265 µM,1.23
same,relative viability,ABC-1; first compound 4 µM,1.05
same,relative viability,CAL-12T; first compound 0.04 µM,0.63
same,relative viability,CAL-12T; first compound 0.1265 µM,0.668
same,relative viability,CAL-12T; first compound 1.265 µM,0.678
same,relative viability,CAL-12T; first compound 4 µM,0.633
same,relative viability,NCI-H1755; first compound 0.04 µM,1.02
same,relative viability,NCI-H1755; first compound 0.1265 µM,1.02
same,relative viability,NCI-H1755; first compound 0.4 µM,1.09
same,relative viability,NCI-H1755; first compound 1.265 µM,0.946
same,relative viability,NCI-H1755; first compound 4 µM,0.951
same,relative viability,HCC-366; first compound 0.04 µM,1.02
same,relative viability,HCC-366; first compound 0.1265 µM,0.93
same,relative viability,HCC-366; first compound 0.4 µM,1.06
same,relative viability,HCC-366; first compound 1.265 µM,0.937
same,relative viability,HCC-366; first compound 4 µM,1.03
same,relative viability,LOU-NH91; first compound 0.04 µM,0.763
same,relative viability,LOU-NH91; first compound 0.1265 µM,0.741
same,relative viability,LOU-NH91; first compound 0.4 µM,0.802
same,relative viability,LOU-NH91; first compound 1.265 µM,0.689
same,relative viability,LOU-NH91; first compound 4 µM,0.664
same,relative viability,NCI-H1793; first compound 0.04 µM,0.743
same,relative viability,NCI-H1793; first compound 0.1265 µM,0.704
same,relative viability,NCI-H1793; first compound 0.4 µM,1.05
same,relative viability,NCI-H1793; first compound 1.265 µM,0.64
same,relative viability,NCI-H1793; first compound 4 µM,0.81

# — the supplement of paper PMC10307832
